Where two headings read alike, the source gives them in different places.
Molecular target: 5-HT2A (Homo sapiens (Human), UniProt P28223)
Assay: Radioligand binding assay, [^3H]5-HT competition, 5-HT2A
[1] = [^3H]5-HT radioligand, membranes of HEK293 cells expressing recombinant 5-HT2A, Ki from IC50 by Cheng-Prusoff, read-out: 5-HT2A serotonin binding Ki value

5-HT2A, sequence (P28223 whole entry): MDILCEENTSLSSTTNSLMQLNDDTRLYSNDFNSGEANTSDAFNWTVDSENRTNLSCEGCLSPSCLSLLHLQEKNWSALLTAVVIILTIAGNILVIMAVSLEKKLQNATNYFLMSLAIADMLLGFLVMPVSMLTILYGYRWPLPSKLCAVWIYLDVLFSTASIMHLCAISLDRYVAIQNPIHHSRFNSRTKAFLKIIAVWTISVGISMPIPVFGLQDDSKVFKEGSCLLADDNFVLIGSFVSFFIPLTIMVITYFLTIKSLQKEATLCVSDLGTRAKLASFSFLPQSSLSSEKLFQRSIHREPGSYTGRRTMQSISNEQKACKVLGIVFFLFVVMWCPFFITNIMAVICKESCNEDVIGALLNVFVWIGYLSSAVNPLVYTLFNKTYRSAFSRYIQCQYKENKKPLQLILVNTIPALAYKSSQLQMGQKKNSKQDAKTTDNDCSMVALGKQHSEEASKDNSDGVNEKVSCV

For `Cc1ncnc(C)c1-c1cc(NC(=O)c2ccn(C)c2)ccc1OCCN1CCCC1` [Compound 201, N-(3-(4,6-dimethylpyrimidin-5-yl)-4-(2-(pyrrolidin-1-yl)ethoxy)phenyl)-1-methyl-1H-pyrrole-3-carboxamide], the Ki [1] was 33.4 nM.

`Cc1ncnc(C)c1-c1cc(NC(=O)c2ccn(C)n2)ccc1OCCN1CCCC1` [Compound 203, N-(3-(4,6-dimethylpyrimidin-5-yl)-4-(2-(pyrrolidin-1-yl)ethoxy)phenyl)-1-methyl-1H-pyrazole-3-carboxamide] showed a Ki [1] of 783 nM.

For `Cc1cc(C(=O)Nc2ccc(OCCN3CCCC3)c(-c3c(C)ncnc3C)c2)co1` [Compound 204, N-(3-(4,6-dimethylpyrimidin-5-yl)-4-(2-(pyrrolidin-1-yl)ethoxy)phenyl)-5-methylfuran-3-carboxamide], the Ki [1] was 13.2 nM.

Molecule `CCc1cc(C(=O)Nc2ccc(OCCN3CCCC3)c(-c3c(C)ncnc3C)c2)[nH]n1` [Compound 205, N-(3-(4,6-dimethylpyrimidin-5-yl)-4-(2-(pyrrolidin-1-yl)ethoxy)phenyl)-3-ethyl-1H-pyrazole-5-carboxamide] has a Ki [1] of 10.4 nM.

In the case of `Cc1ncnc(C)c1-c1cc(NC(=O)c2cc(C(C)C)n[nH]2)ccc1OCCN1CCCC1` [Compound 206, N-(3-(4,6-dimethylpyrimidin-5-yl)-4-(2-(pyrrolidin-1-yl)ethoxy)phenyl)-3-isopropyl-1H-pyrazole-5-carboxamide], the Ki [1] is reported as 6.51 nM.

`Cc1ncnc(C)c1-c1cc(NC(=O)c2cncc(F)c2)ccc1OCCN1CCCC1` [Compound 207, N-(3-(4,6-dimethylpyrimidin-5-yl)-4-(2-(pyrrolidin-1-yl)ethoxy)phenyl)-5-fluoronicotinamide] was tested, and the Ki [1] was 44.2 nM.

For `COc1cncc(C(=O)Nc2ccc(OCCN3CCCC3)c(-c3c(C)ncnc3C)c2)c1` [Compound 208, N-(3-(4,6-dimethylpyrimidin-5-yl)-4-(2-(pyrrolidin-1-yl)ethoxy)phenyl)-5-methoxynicotinamide], the Ki [1] was 22.5 nM.

In the case of `Cc1ncnc(C)c1-c1cc(NC(=O)c2ccc(F)cn2)ccc1OCCN1CCCC1` [Compound 210, N-(3-(4,6-dimethylpyrimidin-5-yl)-4-(2-(pyrrolidin-1-yl)ethoxy)phenyl)-5-fluoropicolinamide], the Ki [1] is reported as 134 nM.

Molecule `Cc1ncnc(C)c1-c1cc(NC(=O)[C@@H]2C[C@H]2F)ccc1OCCN1CCCC1` [Compound 211, (1S,2R)—N-(3-(4,6-dimethylpyrimidin-5-yl)-4-(2-(pyrrolidin-1-yl)ethoxy)phenyl)-2-fluorocyclopropane-1-carboxamide] has a Ki [1] of 2.08 nM.

With `Cc1ncnc(C)c1-c1cc(NC(=O)[C@H]2C[C@H]2F)ccc1OCCN1CCCC1` [Compound 212, (1R,2R)—N-(3-(4,6-dimethylpyrimidin-5-yl)-4-(2-(pyrrolidin-1-yl)ethoxy)phenyl)-2-fluorocyclopropane-1-carboxamide] the Ki [1] was 5.56 nM.

`Cc1ncnc(C)c1-c1cc(NC(=O)[C@@H]2C[C@@H]2F)ccc1OCCN1CCCC1` [Compound 213, (1S,2S)—N-(3-(4,6-dimethylpyrimidin-5-yl)-4-(2-(pyrrolidin-1-yl)ethoxy)phenyl)-2-fluorocyclopropane-1-carboxamide] gave a Ki [1] of 4.6 nM.

`Cc1nc(C)c(C(=O)Nc2ccc(OCCN3CCCC3)c(-c3c(C)ncnc3C)c2)s1` [Compound 215, N-(3-(4,6-dimethylpyrimidin-5-yl)-4-(2-(pyrrolidin-1-yl)ethoxy)phenyl)-2,4-dimethylthiazole-5-carboxamide] showed a Ki [1] of 15.7 nM.

In the case of `Cc1cnoc1C(=O)Nc1ccc(OCCN2CCCC2)c(-c2c(C)ncnc2C)c1` [Compound 216, N-(3-(4,6-dimethylpyrimidin-5-yl)-4-(2-(pyrrolidin-1-yl)ethoxy)phenyl)-4-methylisoxazole-5-carboxamide], the Ki [1] is reported as 16.6 nM.

`Cc1ncnc(C)c1-c1cc(NC(=O)c2cnoc2)ccc1OCCN1CCCC1` [Compound 218, N-(3-(4,6-dimethylpyrimidin-5-yl)-4-(2-(pyrrolidin-1-yl)ethoxy)phenyl)isoxazole-4-carboxamide] was tested, and the Ki [1] was 1510 nM.

Molecule `Cc1nocc1C(=O)Nc1ccc(OCCN2CCCC2)c(-c2c(C)ncnc2C)c1` [Compound 219] has a Ki [1] of 6.51 nM.

`Cc1ncnc(C)c1-c1cc(NC(=O)c2cnoc2C)ccc1OCCN1CCCC1` [Compound 220, N-(3-(4,6-dimethylpyrimidin-5-yl)-4-(2-(pyrrolidin-1-yl)ethoxy)phenyl)-5-methylisoxazole-4-carboxamide] showed a Ki [1] of 22 nM.

In the case of `Cc1ncnc(C)c1-c1cc(NC(=O)c2ncoc2C)ccc1OCCN1CCCC1` [Compound 221, N-(3-(4,6-dimethylpyrimidin-5-yl)-4-(2-(pyrrolidin-1-yl)ethoxy)phenyl)-5-methyloxazole-4-carboxamide], the Ki [1] is reported as 11.4 nM.

Molecule `Cc1nscc1C(=O)Nc1ccc(OCCN2CCCC2)c(-c2c(C)ncnc2C)c1` [Compound 223, N-(3-(4,6-dimethylpyrimidin-5-yl)-4-(2-(pyrrolidin-1-yl)ethoxy)phenyl)-3-methylisothiazole-4-carboxamide] has a Ki (read-out: 5-HT2A serotonin binding Ki value) of 10.5 nM.

In the case of `Cc1ncnc(C)c1-c1cc(NC(=O)Cc2ncsc2C)ccc1OCCN1CCCC1` [Compound 225, N-(3-(4,6-dimethylpyrimidin-5-yl)-4-(2-(pyrrolidin-1-yl)ethoxy)phenyl)-2-(5-methylthiazol-4-yl)acetamide], the Ki [1] is reported as 712 nM.

With `Cc1ncoc1CC(=O)Nc1ccc(OCCN2CCCC2)c(-c2c(C)ncnc2C)c1` [Compound 226, N-(3-(4,6-dimethylpyrimidin-5-yl)-4-(2-(pyrrolidin-1-yl)ethoxy)phenyl)-2-(4-methyloxazol-5-yl)acetamide] the Ki [1] was 714 nM.

With `Cc1ncnc(C)c1-c1cc(NC(=O)Cc2ccnn2C)ccc1OCCN1CCCC1` [Compound 227, N-(3-(4,6-dimethylpyrimidin-5-yl)-4-(2-(pyrrolidin-1-yl)ethoxy)phenyl)-2-(1-methyl-1H-pyrazol-5-yl)acetamide] the Ki [1] was 83.1 nM.

For `Cc1ncnc(C)c1-c1cc(NC(=O)CC2CCOC2)ccc1OCCN1CCCC1` (stereo not drawn) [Compound 228, N-(3-(4,6-dimethylpyrimidin-5-yl)-4-(2-(pyrrolidin-1-yl)ethoxy)phenyl)-2-(tetrahydrofuran-3-yl)acetamide], the Ki [1] was 13 nM.

With `Cc1ncnc(C)c1-c1cc(NC(=O)CC2CCCO2)ccc1OCCN1CCCC1` (stereo not drawn) [Compound 229, N-(3-(4,6-dimethylpyrimidin-5-yl)-4-(2-(pyrrolidin-1-yl)ethoxy)phenyl)-2-(tetrahydrofuran-2-yl)acetamide] the Ki [1] was 113 nM.

`Cc1ncnc(C)c1-c1cc(NC(=O)C2CCCO2)ccc1OCCN1CCCC1` (stereo not drawn) [Compound 230, N-(3-(4,6-dimethylpyrimidin-5-yl)-4-(2-(pyrrolidin-1-yl)ethoxy)phenyl)tetrahydrofuran-2-carboxamide] showed a Ki [1] of 252 nM.

Work on `Cc1ncnc(C)c1-c1cc(NC(=O)C2CCOC2)ccc1OCCN1CCCC1` (stereo not drawn) [Compound 231, N-(3-(4,6-dimethylpyrimidin-5-yl)-4-(2-(pyrrolidin-1-yl)ethoxy)phenyl)tetrahydrofuran-3-carboxamide] yielded a Ki [1] of 45.7 nM.

In the case of `CCOCC(=O)Nc1ccc(OCCN2CCCC2)c(-c2c(C)ncnc2C)c1` [Compound 234, N-(3-(4,6-dimethylpyrimidin-5-yl)-4-(2-(pyrrolidin-1-yl)ethoxy)phenyl)-2-ethoxyacetamide], the Ki [1] is reported as 121 nM.

In the case of `COCCC(=O)Nc1ccc(OCCN2CCCC2)c(-c2c(C)ncnc2C)c1` [Compound 235, N-(3-(4,6-dimethylpyrimidin-5-yl)-4-(2-(pyrrolidin-1-yl)ethoxy)phenyl)-3-methoxypropanamide], the Ki is reported as 211 nM.

`Cc1ncnc(C)c1-c1cc(NC(=O)Cn2cccn2)ccc1OCCN1CCCC1` [Compound 236, N-(3-(4,6-dimethylpyrimidin-5-yl)-4-(2-(pyrrolidin-1-yl)ethoxy)phenyl)-2-(1H-pyrazol-1-yl)acetamide] showed a Ki [1] of 21.4 nM.

`Cc1ncnc(C)c1-c1cc(NC(=O)CN2CCn3cccc3C2)ccc1OCCN1CCCC1` [Compound 237, 2-(3,4-dihydro-1H-pyrrolo[1,2-a]pyrazin-2-yl)-N-[3-(4,6-dimethylpyrimidin-5-yl)-4-(2-pyrrolidin-1-ylethoxy)phenyl]acetamide] showed a Ki [1] of 12.7 nM.

In the case of `Cc1ncnc(C)c1-c1cc(NC(=O)CN2CCn3nccc3C2)ccc1OCCN1CCCC1` [Compound 239, 2-(6,7-dihydropyrazolo[1,5-a]pyrazin-5 (4H)-yl)-N-(3-(4,6-dimethylpyrimidin-5-yl)-4-(2-(pyrrolidin-1-yl)ethoxy)phenyl)acetamide], the Ki [1] is reported as 92.3 nM.

`Cc1ncnc(C)c1-c1cc(NC(=O)CN2CCn3cnnc3C2)ccc1OCCN1CCCC1` [Compound 240, 2-(5,6-dihydro-[1,2,4]triazolo[4,3-a]pyrazin-7 (8H)-yl)-N-(3-(4,6-dimethylpyrimidin-5-yl)-4-(2-(pyrrolidin-1-yl)ethoxy)phenyl)acetamide] gave a Ki [1] of 60900 nM.

`Cc1ncnc(C)c1-c1cc(NC(=O)COC2CC2)ccc1OCCN1CCCC1` [Compound 241, 2-(cyclopropoxy)-N-[3-(4,6-dimethylpyrimidin-5-yl)-4-(2-pyrrolidin-1-ylethoxy)phenyl]acetamide] gave a Ki [1] of 27.8 nM.

`Cc1ncnc(C)c1-c1cc(NC(=O)COC2CCC2)ccc1OCCN1CCCC1` [Compound 242, 2-cyclobutoxy-N-(3-(4,6-dimethylpyrimidin-5-yl)-4-(2-(pyrrolidin-1-yl)ethoxy)phenyl)acetamide] gave a Ki [1] of 37.6 nM.

Work on `Cc1ncnc(C)c1-c1cc(NC(=O)[C@@]23COC[C@@H]2C3)ccc1OCCN1CCCC1` [Compound 246, (1R,5R)—N-[3-(4,6-dimethylpyrimidin-5-yl)-4-(2-pyrrolidin-1-ylethoxy)phenyl]-3-oxabicyclo[3.1.0]hexane-1-carboxamide] yielded a Ki [1] of 16.3 nM.

With `Cc1ncnc(C)c1-c1cc(NC(=O)CCc2ccc(F)cc2)ccc1OCCN1CCCC1` [Compound 248, N-[3-(4,6-dimethylpyrimidin-5-yl)-4-(2-pyrrolidin-1-ylethoxy)phenyl]-3-(4-fluorophenyl)propanamide] the Ki [1] was 0.845 nM.

`Cc1ncnc(C)c1-c1cc(NC(=O)Cc2cccn2C)ccc1OCCN1CCCC1` [Compound 249, N-(3-(4,6-dimethylpyrimidin-5-yl)-4-(2-(pyrrolidin-1-yl)ethoxy)phenyl)-2-(1-methyl-1H-pyrrol-2-yl)acetamide] was tested, and the Ki [1] was 78.3 nM.

From patent US20250270172A1, “Pyrimidine Derivatives As Modulators of the 5-HT2A Serotonin Receptor Useful For The Treatment of Disorders Related Thereto” (Arena Pharmaceuticals, Inc., priority 2020, published 2025)
